Source: ChEMBL document CHEMBL1201862, “PubChem BioAssay data set” (2004)
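The compound was tested at five concentrations on cells cultured in 96-well plates, with a 48-hour exposure period. GI50 = concentration required for 50% inhibition of growth.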 The source made the active and inactive calls. Rule as the data show it: active = GI50 up to about 1.1 µM and inactive = higher.

Experiments:
Test in all cases: DTP human tumour cell line panel, 48 h
HCT-116 = tested on: HCT-116
A498 = tested on: A498
HOP-62 = tested on: HOP-62
UO-31 = tested on: UO-31
OVCAR-5 = tested on: OVCAR-5
KM12 = tested on: KM12
M14 = tested on: M14
HOP-92 = tested on: HOP-92
OVCAR-3 = tested on: OVCAR-3
SF-295 = tested on: SF-295
OVCAR-8 = tested on: OVCAR-8
Hs-578T = tested on: Hs-578T
OVCAR-4 = tested on: OVCAR-4
SK-MEL-28 = tested on: SK-MEL-28
SF-268 = tested on: SF-268
HL-60 = tested on: HL-60
T47D = tested on: T47D
SNB-75 = tested on: SNB-75

Measured: GI50

N#Cc1ccccc1OCCOc1ccccc1C#N
inactive: HCT-116 > 100 µM | A498 > 100 µM | HOP-62 > 100 µM | UO-31 > 100 µM | OVCAR-5 > 100 µM | KM12 > 100 µM | M14 > 100 µM | HOP-92 > 100 µM | OVCAR-3 > 100 µM | SF-295 > 100 µM | OVCAR-8 > 100 µM | Hs-578T > 100 µM | OVCAR-4 > 100 µM | SK-MEL-28 > 100 µM | SF-268 > 100 µM | HL-60 > 100 µM | T47D > 100 µM | SNB-75 61.9 µM

CC1=NN(c2nc(N)nc(CO)n2)C(C)(C)C1
inactive: HCT-116 > 100 µM | A498 > 100 µM | HOP-62 > 100 µM | UO-31 > 100 µM | OVCAR-5 > 100 µM | KM12 > 100 µM | M14 > 100 µM | HOP-92 > 100 µM | OVCAR-3 > 100 µM | SF-295 > 100 µM | OVCAR-8 > 100 µM | Hs-578T > 100 µM | OVCAR-4 > 100 µM | SK-MEL-28 > 100 µM | SF-268 > 100 µM | HL-60 > 100 µM | T47D > 100 µM | SNB-75 > 100 µM

COC1=CCC2=C(CCN(C(=O)C3CC3)C2Cc2ccc(OC)c(O)c2)C1 (stereo unspecified)
inactive: HCT-116 36.6 µM | A498 68.5 µM | HOP-62 61.8 µM | UO-31 > 100 µM | OVCAR-5 > 100 µM | KM12 37.2 µM | M14 45 µM | HOP-92 27.9 µM | OVCAR-3 45.4 µM | SF-295 57.8 µM | OVCAR-8 34 µM | Hs-578T 69.2 µM | OVCAR-4 42.5 µM | SK-MEL-28 31.8 µM | SF-268 51.1 µM | HL-60 26.7 µM | T47D 21 µM | SNB-75 14.9 µM

CN(C)c1ccc(/C=c2/c3ccccc3n3c2cc(NC(=O)NCCC[N+](C)(C)C)[n+]3C)cc1
inactive: HCT-116 > 100 µM | A498 > 100 µM | HOP-62 > 100 µM | UO-31 > 100 µM | OVCAR-5 > 100 µM | KM12 > 100 µM | M14 72.8 µM | HOP-92 30.6 µM | OVCAR-3 45.4 µM | SF-295 53.7 µM | OVCAR-8 38.9 µM | Hs-578T > 100 µM | OVCAR-4 22.2 µM | SK-MEL-28 > 100 µM | SF-268 > 100 µM | HL-60 42.9 µM | T47D 6.41 µM
